Results taken from US20070099890A1, “Novel cephalosporin derivatives, its pharmaceutically acceptable salts and manufacturing process thereof” (priority 2003, published 2007).
Values after ≈ are worked out from the molar mass of the structure shown. Where two headings read alike, the source gives them in different places.

How the values were obtained:
Assay in all cases: In vitro antibacterial activity test (2-fold agar dilution MIC)
Assay type in all cases: cell-based
Conditions in all cases: for MIC: read-out: Minimum inhibitory concentrations (MICs)
[1] = tested on: Staphylococcus aureus 002 (MRSA)
Method: (§1) The in vitro antibacterial activity of the compounds prepared in the Examples of the invention was determined as follows: after incubation of the corresponding bacterium for 18 h at 37° C., minimum inhibitory concentrations (MICs, μg/mL) were determined by the 2-fold agar dilution method with Mueller-Hinton Agar.

[2] = tested on: Staphylococcus aureus 009 (MRSA)
Method: as §1

[3] = tested on: Staphylococcus aureus 005 (MRSA)
Method: as §1

[4] = tested on: Staphylococcus aureus 001 (MRSA)
Method: as §1

[5] = tested on: Staphylococcus aureus 008 (MRSA)
Method: as §1

[6] = tested on: Staphylococcus aureus 010 (MRSA)
Method: as §1

[7] = tested on: Staphylococcus aureus 007 (MRSA)
Method: as §1

[8] = tested on: Staphylococcus aureus 004 (MRSA)
Method: as §1

[9] = tested on: Staphylococcus aureus 003 (MRSA)
Method: as §1

[10] = tested on: Staphylococcus aureus 006 (MRSA)
Method: as §1

[11] = MRSA Staphylococcus aureus 002, 2-fold agar dilution, Mueller-Hinton Agar, 18 h at 37° C.
[12] = MRSA Staphylococcus aureus 009, 2-fold agar dilution, Mueller-Hinton Agar, 18 h at 37° C.
[13] = MRSA Staphylococcus aureus 005, 2-fold agar dilution, Mueller-Hinton Agar, 18 h at 37° C.
[14] = MRSA Staphylococcus aureus 001, 2-fold agar dilution, Mueller-Hinton Agar, 18 h at 37° C.
[15] = MRSA Staphylococcus aureus 008, 2-fold agar dilution, Mueller-Hinton Agar, 18 h at 37° C.
[16] = MRSA Staphylococcus aureus 010, 2-fold agar dilution, Mueller-Hinton Agar, 18 h at 37° C.
[17] = MRSA Staphylococcus aureus 007, 2-fold agar dilution, Mueller-Hinton Agar, 18 h at 37° C.
[18] = MRSA Staphylococcus aureus 004, 2-fold agar dilution, Mueller-Hinton Agar, 18 h at 37° C.
[19] = MRSA Staphylococcus aureus 003, 2-fold agar dilution, Mueller-Hinton Agar, 18 h at 37° C.
[20] = MRSA Staphylococcus aureus 006, 2-fold agar dilution, Mueller-Hinton Agar, 18 h at 37° C.
[21] = Staphylococcus aureus, MRSA, 18 h

Compound: O=C(CSc1ccccc1)N[C@@H]1C(=O)N2C(C(=O)O)=C(C=Cc3cc(-c4ccc(Br)cc4)no3)CS[C@H]12 [Compound 30]
- Minimum inhibitory concentrations (MICs) [1, 11]: 0.002 µg/mL (≈ 0.00334 µM)
- Minimum inhibitory concentrations (MICs) [2, 12]: 0.195 µg/mL (≈ 0.326 µM)
- Minimum inhibitory concentrations (MICs) [3, 13]: 0.098 µg/mL (≈ 0.164 µM)
- Minimum inhibitory concentrations (MICs) [4, 14]: 3.125 µg/mL (≈ 5.22 µM)
- Minimum inhibitory concentrations (MICs) [5, 15]: 0.195 µg/mL (≈ 0.326 µM)
- Minimum inhibitory concentrations (MICs) [6, 16]: 0.195 µg/mL (≈ 0.326 µM)
- Minimum inhibitory concentrations (MICs) [7, 17]: <0.002 µg/mL
- Minimum inhibitory concentrations (MICs) [8, 18]: 3.125 µg/mL (≈ 5.22 µM)
- Minimum inhibitory concentrations (MICs) [9, 19]: 6.250 µg/mL (≈ 10.4 µM)
- Minimum inhibitory concentrations (MICs) [10, 20]: 0.004 µg/mL (≈ 0.00668 µM)

Compound: CO/N=C(\C(=O)N[C@@H]1C(=O)N2C(C(=O)O)=C(COC(C)=O)CS[C@H]12)c1csc(N)n1 [cefotaxime]
- MIC [1, 11]: 3.12 µg/mL (≈ 6.86 µM)
- MIC [2, 12]: 6.25 µg/mL (≈ 13.7 µM)
- MIC [3, 13]: 6.25 µg/mL (≈ 13.7 µM)
- MIC [4, 14]: 25 µg/mL (≈ 54.9 µM)
- MIC [5, 15]: 1.56 µg/mL (≈ 3.43 µM)
- MIC [6, 16]: 6.25 µg/mL (≈ 13.7 µM)
- MIC [7, 17]: 1.56 µg/mL (≈ 3.43 µM)
- MIC [8, 18]: > 10 µg/mL
- MIC [9, 19]: > 100 µg/mL
- MIC [10, 20]: 1.56 µg/mL (≈ 3.43 µM)

Compound: CN[C@H](CC(C)C)C(=O)N[C@H]1C(=O)N[C@@H](CC(N)=O)C(=O)N[C@H]2C(=O)N[C@H]3C(=O)N[C@H](C(=O)N[C@H](C(=O)O)c4cc(O)cc(O)c4-c4cc3ccc4O)[C@H](O)c3ccc(c(Cl)c3)Oc3cc2cc(c3O[C@@H]2O[C@H](CO)[C@@H](O)[C@H](O)[C@H]2O[C@H]2C[C@](C)(N)[C@H](O)[C@H](C)O2)Oc2ccc(cc2Cl)[C@H]1O [vancomycin]
- MIC [1, 21]: 1.56 µg/mL (≈ 1.08 µM)
- MIC [2, 21]: 0.781 µg/mL (≈ 0.539 µM)
- MIC [3, 21]: 0.781 µg/mL (≈ 0.539 µM)
- MIC [4, 21]: 3.12 µg/mL (≈ 2.16 µM)
- MIC [5, 21]: 0.781 µg/mL (≈ 0.539 µM)
- MIC [6, 21]: 0.781 µg/mL (≈ 0.539 µM)
- MIC [7, 21]: 0.781 µg/mL (≈ 0.539 µM)
- MIC [8, 21]: 0.781 µg/mL (≈ 0.539 µM)
- MIC [9, 21]: 0.781 µg/mL (≈ 0.539 µM)
- MIC [10, 21]: 0.781 µg/mL (≈ 0.539 µM)
